The record followed here is PubChem BioAssay (NCI).

Test systems include BT-549 breast; COLO 205 colon; DU-145 prostate; HL-60(TB) leukemia; HT29 colon; K-562 leukemia; KM12 colon; LOX IMVI melanoma; MALME-3M melanoma; MCF7 breast; MDA-MB-435; MDA-N; NCI-H23 lung; OVCAR-4 ovarian; OVCAR-8 ovarian; SK-MEL-2 melanoma; SK-OV-3 ovarian; SNB-75 CNS; T-47D breast; NCI-H522 lung.
Assay in all cases: NCI tumour cell line growth inhibition, 48 h

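Each compound was tested at five concentrations against cells in 96-well plates for 48 hours. At the TGI there is no net growth.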 Where only a bound is given, the exact number is not on record here.

`COc1ccc(/C=C2\CCc3cc(OC)c(OC)cc3C2=O)cc1`: the TGI in the assay with BT-549 breast, in the assay with COLO 205 colon, in the assay with DU-145 prostate, in the assay with HL-60(TB) leukemia, in the assay with HT29 colon and in the assay with K-562 leukemia was over 10 µM throughout. Also, the TGI in the assay on KM12 colon, with LOX IMVI melanoma, in the assay with MALME-3M melanoma, in the assay on MCF7 breast, in the assay on MDA-MB-435 and with MDA-N was over 10 µM throughout. The TGI in the assay with NCI-H23 lung, in the assay on OVCAR-4 ovarian, in the assay on OVCAR-8 ovarian, with SK-MEL-2 melanoma, in the assay with SK-OV-3 ovarian and with SNB-75 CNS was over 10 µM each time. The compound also returned a TGI with T-47D breast of over 10 µM.
As to `C[N+](C)(C)CCOP(=O)([O-])OCCNC(=O)c1ccc2ccccc2c1`, the TGI in the assay with BT-549 breast, in the assay with COLO 205 colon, in the assay with DU-145 prostate, in the assay on HL-60(TB) leukemia, with HT29 colon and in the assay on K-562 leukemia was over 100 µM each time. For the same compound, the TGI in the assay with KM12 colon, in the assay with LOX IMVI melanoma, in the assay on MALME-3M melanoma, in the assay with MCF7 breast, in the assay on MDA-MB-435 and in the assay with MDA-N was over 100 µM in each case. Also, the TGI in the assay with NCI-H23 lung, in the assay on NCI-H522 lung, in the assay with OVCAR-8 ovarian, with SK-OV-3 ovarian, with SNB-75 CNS and in the assay on T-47D breast was over 100 µM in each case.
Turning to `CSc1nc(Br)nc2ncn(C3CC(Oc4ccc(C)cc4)C(COc4ccc(C)cc4)O3)c12` (stereo unspecified), the TGI in the assay on BT-549 breast, in the assay with COLO 205 colon, in the assay with DU-145 prostate, with HL-60(TB) leukemia, in the assay on HT29 colon and in the assay with KM12 colon was over 100 µM each time. The TGI in the assay on LOX IMVI melanoma, with MALME-3M melanoma, with MCF7 breast, in the assay with MDA-MB-435, in the assay with MDA-N and with NCI-H23 lung was over 100 µM throughout. Further, the TGI in the assay with NCI-H522 lung, in the assay on OVCAR-4 ovarian, in the assay on OVCAR-8 ovarian, in the assay on SK-MEL-2 melanoma, in the assay on SK-OV-3 ovarian and in the assay with SNB-75 CNS was over 100 µM each time. Further, the TGI in the assay on T-47D breast is over 100 µM.
For the compound `CNN1C(=O)c2c(C)c(C)c(C#N)c(N)c2C1=O`, the TGI with BT-549 breast, in the assay with COLO 205 colon, in the assay on DU-145 prostate, with HL-60(TB) leukemia, in the assay on K-562 leukemia and in the assay with KM12 colon was over 100 µM each time. The TGI with LOX IMVI melanoma, in the assay with MALME-3M melanoma, in the assay on MCF7 breast, with MDA-MB-435, in the assay with MDA-N and in the assay on NCI-H522 lung was over 100 µM in each case. For the same compound, the TGI with OVCAR-4 ovarian, in the assay on OVCAR-8 ovarian, in the assay on SK-MEL-2 melanoma, with SNB-75 CNS and in the assay on T-47D breast was over 100 µM each time.
Take `NS(=O)(=O)c1nnc(NS(=O)(=O)c2ccc(Cl)cc2)s1`: the TGI with BT-549 breast, with COLO 205 colon, in the assay with DU-145 prostate, in the assay on HT29 colon, in the assay with K-562 leukemia and in the assay with KM12 colon was over 100 µM throughout. Further, the TGI with LOX IMVI melanoma, with MALME-3M melanoma, in the assay with MCF7 breast, with MDA-MB-435, in the assay with MDA-N and with NCI-H23 lung was over 100 µM throughout. Moreover, the TGI with NCI-H522 lung, in the assay on OVCAR-4 ovarian, with OVCAR-8 ovarian, in the assay on SK-MEL-2 melanoma, with SK-OV-3 ovarian and with T-47D breast was over 100 µM in each case.
`Cc1cc2c(cc1C)C(=O)/C(=C/c1ccccc1C(=O)O)C2`: the TGI in the assay with BT-549 breast was over 100 µM; with COLO 205 colon it was 36.3 µM; in the assay with DU-145 prostate it was over 100 µM; in the assay on HL-60(TB) leukemia, over 100 µM; in the assay with HT29 colon, over 100 µM; in the assay on K-562 leukemia, over 100 µM. For the same compound, the TGI was over 100 µM with KM12 colon; 83.5 µM with LOX IMVI melanoma; over 100 µM with MALME-3M melanoma; over 100 µM in the assay on MCF7 breast; over 100 µM in the assay on MDA-MB-435; over 100 µM in the assay on MDA-N. Further, the TGI was 66.7 µM in the assay with NCI-H23 lung; over 100 µM with NCI-H522 lung; over 100 µM in the assay on OVCAR-4 ovarian; over 100 µM in the assay on OVCAR-8 ovarian; over 100 µM with SK-MEL-2 melanoma; over 100 µM in the assay on SNB-75 CNS. Further, the TGI in the assay on T-47D breast is over 100 µM.
Regarding `OCCCCCCCCCCCOc1ccc(C2OCC3(CC=CCC3)CO2)cc1` (stereo unspecified), the TGI with BT-549 breast stood at 30.9 µM; in the assay on COLO 205 colon, 46.8 µM; in the assay on DU-145 prostate, 32.6 µM; in the assay on HL-60(TB) leukemia, 88.7 µM; in the assay with HT29 colon it was 14.8 µM; with KM12 colon, 28.7 µM. Moreover, the TGI was determined as 25.2 µM in the assay with LOX IMVI melanoma; 43.4 µM in the assay on MALME-3M melanoma; 19.6 µM in the assay on MCF7 breast; 38 µM with MDA-MB-435; 32 µM with MDA-N; 31.6 µM in the assay with NCI-H23 lung. Moreover, the TGI was 23.4 µM with NCI-H522 lung; 34 µM with OVCAR-4 ovarian; 43.1 µM with OVCAR-8 ovarian; over 100 µM with SK-MEL-2 melanoma; 37 µM in the assay on SK-OV-3 ovarian; 28.2 µM in the assay on SNB-75 CNS. The same compound showed a TGI in the assay on T-47D breast of 31 µM.
Consider `Nc1c(Br)cc(-c2nc3ccccc3s2)cc1Br`, for which the TGI in the assay with BT-549 breast, in the assay on COLO 205 colon, in the assay with DU-145 prostate, with HL-60(TB) leukemia, with HT29 colon and in the assay on K-562 leukemia was over 100 µM throughout. Besides, the TGI with KM12 colon, in the assay with MALME-3M melanoma, with MCF7 breast, with MDA-MB-435, in the assay with MDA-N and in the assay with NCI-H522 lung was over 100 µM in each case. The TGI in the assay with OVCAR-8 ovarian, in the assay on SK-MEL-2 melanoma, in the assay with SK-OV-3 ovarian, in the assay on SNB-75 CNS and with T-47D breast was over 100 µM each time.
